Reference: ChEMBL document CHEMBL1154273, “Synthesis and antimalarial activity of new atovaquone derivatives” (Eur J Med Chem, 2009)
One block for each compound: values may come before it.

Test system: Plasmodium falciparum
Assay: Antimalarial activity against Plasmodium falciparum Nigerian assessed as [3H]hypoxanthine uptake after 48 hrs by liquid scintillation counting
Type: functional, organism-based

SMILES: CCCCCCCCCCCCCCCCCC(=O)OC1=C([C@H]2CC[C@H](c3ccc(Cl)cc3)CC2)C(=O)c2ccccc2C1=O
IC50: 52 nM

SMILES: CCCCCCCCCCCCCCCCCCOC1=C([C@H]2CC[C@H](c3ccc(Cl)cc3)CC2)C(=O)c2ccccc2C1=O
IC50: 32 nM

SMILES: CCCCCCCCCC(=O)OC1=C([C@H]2CC[C@H](c3ccc(Cl)cc3)CC2)C(=O)C(=O)c2ccccc21
IC50: > 100 nM

SMILES: CCOC1=C([C@H]2CC[C@H](c3ccc(Cl)cc3)CC2)C(=O)c2ccccc2C1=O
IC50: 5.55 nM

SMILES: O=C1C(OCc2ccccc2)=C([C@H]2CC[C@H](c3ccc(Cl)cc3)CC2)C(=O)c2ccccc21
IC50: 7.65 nM

SMILES: CCCCCCOC1=C([C@H]2CC[C@H](c3ccc(Cl)cc3)CC2)C(=O)c2ccccc2C1=O
IC50: 13.5 nM

SMILES: CCCCCCCCCOC1=C([C@H]2CC[C@H](c3ccc(Cl)cc3)CC2)C(=O)c2ccccc2C1=O
IC50: 14 nM

SMILES: CCCCCCCCCCOC1=C([C@H]2CC[C@H](c3ccc(Cl)cc3)CC2)C(=O)c2ccccc2C1=O
IC50: 11 nM

SMILES: C=C[C@H]1CN2CC[C@H]1C[C@H]2[C@H](O)c1ccnc2ccc(OC)cc12 [QUININE]
IC50: 180 nM

The next compounds have a lower IC50 than those just listed; values first:

IC50: 1.65 nM
SMILES: O=C(Cc1ccc(Cl)cc1)OC1=C([C@H]2CC[C@H](c3ccc(Cl)cc3)CC2)C(=O)c2ccccc2C1=O

IC50: 1.9 nM
SMILES: CCCCCCCCCC(=O)OC1=C([C@H]2CC[C@H](c3ccc(Cl)cc3)CC2)C(=O)c2ccccc2C1=O

IC50: 1.6 nM
SMILES: O=C(OC1=C([C@H]2CC[C@H](c3ccc(Cl)cc3)CC2)C(=O)c2ccccc2C1=O)c1ccc(F)cc1

IC50: 1.75 nM
SMILES: O=C(Cc1ccc(F)cc1)OC1=C([C@H]2CC[C@H](c3ccc(Cl)cc3)CC2)C(=O)c2ccccc2C1=O

IC50: 1.45 nM
SMILES: O=C(/C=C/c1ccccc1)OC1=C([C@H]2CC[C@H](c3ccc(Cl)cc3)CC2)C(=O)c2ccccc2C1=O

IC50: 1.5 nM
SMILES: CCCCCCCC(=O)OC1=C([C@H]2CC[C@H](c3ccc(Cl)cc3)CC2)C(=O)c2ccccc2C1=O

IC50: 3.1 nM
SMILES: CCCCCCCCC(=O)OC1=C([C@H]2CC[C@H](c3ccc(Cl)cc3)CC2)C(=O)c2ccccc2C1=O

IC50: 1.5 nM
SMILES: CC(=O)OC1=C([C@H]2CC[C@H](c3ccc(Cl)cc3)CC2)C(=O)c2ccccc2C1=O

IC50: 1.25 nM
SMILES: O=C(OC1=C([C@H]2CC[C@H](c3ccc(Cl)cc3)CC2)C(=O)c2ccccc2C1=O)c1ccccc1

IC50: 1.25 nM
SMILES: CCCCCC(=O)OC1=C([C@H]2CC[C@H](c3ccc(Cl)cc3)CC2)C(=O)c2ccccc2C1=O

IC50: 0.75 nM
SMILES: O=C1C(O)=C([C@H]2CC[C@H](c3ccc(Cl)cc3)CC2)C(=O)c2ccccc21 [ATOVAQUONE]
